Laboratory results taken from PMC4032265 (PLoS ONE, 2014).
“And” between values parts separate entries of the source, which are not always exact repeats. Equal values may be shown once. Read-outs that look alike come from different tables or passages of the source.

What was measured:
[1] = target: T1, α2C adrenergic receptor (Homo sapiens, UniProt P18825); experiment: PDSP radioligand binding, α2C; details: for inhibition at 10 µM: read-out: % inhibition at 10 µM; for Ki: full concentration-response curves, n = 3-6 unless noted
T1 sequence (P18825 1-462): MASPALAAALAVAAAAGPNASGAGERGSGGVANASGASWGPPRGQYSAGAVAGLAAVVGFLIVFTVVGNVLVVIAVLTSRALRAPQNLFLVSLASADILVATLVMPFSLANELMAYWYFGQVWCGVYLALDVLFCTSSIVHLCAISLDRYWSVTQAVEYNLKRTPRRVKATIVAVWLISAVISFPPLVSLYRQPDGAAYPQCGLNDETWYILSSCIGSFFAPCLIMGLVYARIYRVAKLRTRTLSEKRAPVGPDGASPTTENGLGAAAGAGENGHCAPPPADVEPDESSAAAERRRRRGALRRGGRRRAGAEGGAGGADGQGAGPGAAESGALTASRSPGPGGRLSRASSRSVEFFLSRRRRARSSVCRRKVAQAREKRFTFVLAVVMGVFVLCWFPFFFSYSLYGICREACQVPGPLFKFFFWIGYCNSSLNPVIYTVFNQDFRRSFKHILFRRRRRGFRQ

[2] = target: β3 adrenergic receptor (Homo sapiens, UniProt P13945); experiment: PDSP radioligand binding, β3; details: for inhibition at 10 µM: read-out: % inhibition at 10 µM; for Ki: full concentration-response curves, n = 3-6 unless noted
Chain of β3 adrenergic receptor (P13945 whole entry): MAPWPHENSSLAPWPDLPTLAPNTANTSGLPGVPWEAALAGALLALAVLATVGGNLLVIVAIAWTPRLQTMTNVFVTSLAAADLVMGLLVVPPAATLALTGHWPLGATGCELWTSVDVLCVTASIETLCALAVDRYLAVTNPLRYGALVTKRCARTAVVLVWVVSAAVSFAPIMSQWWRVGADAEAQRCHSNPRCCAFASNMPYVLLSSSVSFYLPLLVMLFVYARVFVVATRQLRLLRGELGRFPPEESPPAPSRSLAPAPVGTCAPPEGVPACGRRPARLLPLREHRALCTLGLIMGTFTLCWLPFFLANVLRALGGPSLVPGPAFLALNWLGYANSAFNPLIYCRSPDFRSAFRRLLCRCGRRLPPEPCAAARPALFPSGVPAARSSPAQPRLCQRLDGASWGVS

[3] = target: 5HT2A serotonergic receptor (Homo sapiens, UniProt P28223); experiment: PDSP radioligand binding, 5HT2A; details: read-out: % inhibition at 10 µM
Chain of 5HT2A serotonergic receptor (P28223 whole entry): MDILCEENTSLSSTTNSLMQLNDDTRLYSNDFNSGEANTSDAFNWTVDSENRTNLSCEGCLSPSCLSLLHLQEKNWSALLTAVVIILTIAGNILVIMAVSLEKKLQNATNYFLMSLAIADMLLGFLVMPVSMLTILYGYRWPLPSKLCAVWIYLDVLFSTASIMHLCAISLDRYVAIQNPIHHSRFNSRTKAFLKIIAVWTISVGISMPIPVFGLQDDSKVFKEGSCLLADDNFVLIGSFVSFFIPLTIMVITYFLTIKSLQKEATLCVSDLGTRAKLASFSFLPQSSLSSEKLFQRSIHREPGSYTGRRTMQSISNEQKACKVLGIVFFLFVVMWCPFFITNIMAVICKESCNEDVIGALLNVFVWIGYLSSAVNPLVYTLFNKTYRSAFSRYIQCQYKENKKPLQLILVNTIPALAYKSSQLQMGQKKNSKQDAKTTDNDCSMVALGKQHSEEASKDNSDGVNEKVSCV

[4] = target: 5HT7 serotonergic receptor (Homo sapiens, UniProt P34969); experiment: PDSP radioligand binding, 5HT7; details: for inhibition at 10 µM: read-out: % inhibition at 10 µM; for Ki: full curve, n = 1
Chain of 5HT7 serotonergic receptor (P34969 whole entry): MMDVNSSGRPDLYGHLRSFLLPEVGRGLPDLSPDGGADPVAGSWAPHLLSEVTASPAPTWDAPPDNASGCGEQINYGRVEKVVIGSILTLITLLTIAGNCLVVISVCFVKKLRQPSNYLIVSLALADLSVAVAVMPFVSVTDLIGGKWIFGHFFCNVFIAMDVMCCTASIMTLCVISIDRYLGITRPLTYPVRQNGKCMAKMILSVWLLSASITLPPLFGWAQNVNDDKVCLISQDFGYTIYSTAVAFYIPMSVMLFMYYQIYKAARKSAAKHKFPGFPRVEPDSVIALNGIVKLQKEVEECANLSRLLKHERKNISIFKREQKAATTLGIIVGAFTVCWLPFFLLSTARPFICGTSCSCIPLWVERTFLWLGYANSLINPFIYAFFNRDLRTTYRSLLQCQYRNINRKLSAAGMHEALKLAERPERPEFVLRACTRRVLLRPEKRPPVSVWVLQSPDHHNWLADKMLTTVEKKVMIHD

[5] = target: T2, α2A adrenergic receptor (Homo sapiens, UniProt P08913); experiment: PDSP radioligand binding, α2A; details: for inhibition at 10 µM: read-out: % inhibition at 10 µM; for Ki: full concentration-response curves, n = 3-6 unless noted
T2 sequence (P08913 1-465): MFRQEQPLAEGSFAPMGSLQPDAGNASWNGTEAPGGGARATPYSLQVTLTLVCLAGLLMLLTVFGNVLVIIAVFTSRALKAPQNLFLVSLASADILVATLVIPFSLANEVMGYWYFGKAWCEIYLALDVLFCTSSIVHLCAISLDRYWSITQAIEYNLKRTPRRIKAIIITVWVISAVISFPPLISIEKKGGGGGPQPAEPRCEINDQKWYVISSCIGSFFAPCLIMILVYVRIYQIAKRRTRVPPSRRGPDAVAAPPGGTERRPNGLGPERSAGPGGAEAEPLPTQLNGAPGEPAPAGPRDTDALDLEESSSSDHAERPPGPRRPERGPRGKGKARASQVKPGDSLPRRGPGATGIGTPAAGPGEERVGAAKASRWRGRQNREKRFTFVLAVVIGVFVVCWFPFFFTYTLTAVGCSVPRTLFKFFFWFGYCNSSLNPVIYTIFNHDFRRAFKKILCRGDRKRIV

[6] = target: T3, D4 dopaminergic receptor (Homo sapiens, UniProt P21917); experiment: PDSP radioligand binding, D4; details: read-out: % inhibition at 10 µM
T3 sequence (P21917 1-419): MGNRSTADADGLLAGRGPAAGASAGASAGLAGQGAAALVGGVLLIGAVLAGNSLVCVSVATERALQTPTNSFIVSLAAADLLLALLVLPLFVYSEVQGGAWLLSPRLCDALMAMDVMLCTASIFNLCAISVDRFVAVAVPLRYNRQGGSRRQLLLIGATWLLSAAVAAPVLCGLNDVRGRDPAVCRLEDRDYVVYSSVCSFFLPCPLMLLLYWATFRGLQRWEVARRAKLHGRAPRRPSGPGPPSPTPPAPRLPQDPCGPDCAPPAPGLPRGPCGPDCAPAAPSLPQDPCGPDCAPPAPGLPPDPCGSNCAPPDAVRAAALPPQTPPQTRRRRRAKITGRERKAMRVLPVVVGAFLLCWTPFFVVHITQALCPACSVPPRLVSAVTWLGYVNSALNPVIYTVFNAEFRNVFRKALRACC

[7] = target: µ opioid receptor (Homo sapiens, UniProt P35372); experiment: PDSP radioligand binding, µ opioid; details: read-out: % inhibition at 10 µM
Chain of µ opioid receptor (P35372 whole entry): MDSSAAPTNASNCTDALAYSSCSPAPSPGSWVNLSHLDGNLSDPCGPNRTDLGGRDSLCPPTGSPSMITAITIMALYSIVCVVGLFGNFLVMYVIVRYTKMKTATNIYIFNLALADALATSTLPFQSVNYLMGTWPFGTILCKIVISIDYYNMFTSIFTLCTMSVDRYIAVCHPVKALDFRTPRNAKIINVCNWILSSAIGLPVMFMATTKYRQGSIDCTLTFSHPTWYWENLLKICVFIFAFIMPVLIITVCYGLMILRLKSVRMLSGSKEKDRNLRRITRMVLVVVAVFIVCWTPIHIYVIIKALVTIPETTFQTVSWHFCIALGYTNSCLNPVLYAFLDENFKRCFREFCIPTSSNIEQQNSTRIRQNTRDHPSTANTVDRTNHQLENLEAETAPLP

[8] = target: M3 muscarinic acetylcholine receptor (Homo sapiens, UniProt P20309); experiment: PDSP radioligand binding, M3; details: read-out: % inhibition at 10 µM
Chain of M3 muscarinic acetylcholine receptor (P20309 whole entry): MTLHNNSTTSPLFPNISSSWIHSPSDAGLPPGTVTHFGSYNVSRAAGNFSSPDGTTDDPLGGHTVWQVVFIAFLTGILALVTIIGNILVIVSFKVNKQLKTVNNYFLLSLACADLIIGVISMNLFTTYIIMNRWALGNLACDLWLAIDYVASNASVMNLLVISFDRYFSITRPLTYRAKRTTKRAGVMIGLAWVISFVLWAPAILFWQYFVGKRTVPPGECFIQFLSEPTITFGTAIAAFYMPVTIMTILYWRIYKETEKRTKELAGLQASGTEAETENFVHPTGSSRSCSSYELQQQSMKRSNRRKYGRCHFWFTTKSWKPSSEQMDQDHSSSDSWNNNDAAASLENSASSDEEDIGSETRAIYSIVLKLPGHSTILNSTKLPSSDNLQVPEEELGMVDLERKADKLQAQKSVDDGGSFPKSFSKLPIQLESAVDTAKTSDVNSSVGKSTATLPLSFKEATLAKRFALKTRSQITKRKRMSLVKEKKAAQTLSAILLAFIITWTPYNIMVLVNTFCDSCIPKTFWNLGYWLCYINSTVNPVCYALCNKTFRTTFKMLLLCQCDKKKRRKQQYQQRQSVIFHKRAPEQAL

[9] = target: T4, 5HT1A serotonergic receptor (Homo sapiens, UniProt P08908); experiment: PDSP radioligand binding, 5HT1A; details: for inhibition at 10 µM: read-out: % inhibition at 10 µM
T4 sequence (P08908 1-422): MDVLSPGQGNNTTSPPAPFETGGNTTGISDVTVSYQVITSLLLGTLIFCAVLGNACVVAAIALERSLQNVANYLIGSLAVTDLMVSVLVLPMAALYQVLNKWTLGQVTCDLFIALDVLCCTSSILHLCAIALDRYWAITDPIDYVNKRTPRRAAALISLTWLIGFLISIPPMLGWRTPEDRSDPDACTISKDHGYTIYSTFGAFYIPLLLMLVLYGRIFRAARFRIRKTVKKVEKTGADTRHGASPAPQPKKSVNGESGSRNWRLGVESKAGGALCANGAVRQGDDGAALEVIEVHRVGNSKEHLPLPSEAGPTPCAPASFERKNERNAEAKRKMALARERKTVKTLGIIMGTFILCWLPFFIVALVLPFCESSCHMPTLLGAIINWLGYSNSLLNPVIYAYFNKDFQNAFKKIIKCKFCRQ

[10] = target: 5HT1B serotonergic receptor (Homo sapiens, UniProt P28222); experiment: PDSP radioligand binding, 5HT1B; details: read-out: % inhibition at 10 µM
Chain of 5HT1B serotonergic receptor (P28222 whole entry): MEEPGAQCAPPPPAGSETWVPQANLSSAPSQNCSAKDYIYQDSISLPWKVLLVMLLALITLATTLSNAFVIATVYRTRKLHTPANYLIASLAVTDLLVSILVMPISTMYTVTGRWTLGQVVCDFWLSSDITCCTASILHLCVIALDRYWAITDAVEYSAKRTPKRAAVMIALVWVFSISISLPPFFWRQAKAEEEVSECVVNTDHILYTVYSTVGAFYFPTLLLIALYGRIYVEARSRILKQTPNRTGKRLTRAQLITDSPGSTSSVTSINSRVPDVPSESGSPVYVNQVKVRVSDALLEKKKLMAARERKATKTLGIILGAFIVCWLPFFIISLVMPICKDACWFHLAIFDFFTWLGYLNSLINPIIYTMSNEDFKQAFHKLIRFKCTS

[11] = target: T5, α1A adrenergic receptor (Homo sapiens, UniProt P35348); experiment: PDSP radioligand binding, α1A; details: read-out: % inhibition at 10 µM
T5 sequence (P35348 1-466): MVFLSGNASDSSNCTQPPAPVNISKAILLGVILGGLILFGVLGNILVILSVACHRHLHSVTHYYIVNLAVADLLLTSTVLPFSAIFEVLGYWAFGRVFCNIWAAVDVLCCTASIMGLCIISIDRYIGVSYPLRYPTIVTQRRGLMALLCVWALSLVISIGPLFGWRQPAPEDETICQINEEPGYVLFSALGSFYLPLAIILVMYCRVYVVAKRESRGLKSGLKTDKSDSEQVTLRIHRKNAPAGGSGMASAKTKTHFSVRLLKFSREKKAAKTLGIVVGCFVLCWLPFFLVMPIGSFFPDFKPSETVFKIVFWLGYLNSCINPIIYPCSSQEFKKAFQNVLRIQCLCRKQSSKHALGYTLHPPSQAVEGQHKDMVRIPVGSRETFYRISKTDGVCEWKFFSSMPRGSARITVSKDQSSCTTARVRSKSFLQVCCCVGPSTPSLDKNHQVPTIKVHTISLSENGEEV

[12] = target: H1 histaminergic receptor (Homo sapiens, UniProt P35367); experiment: PDSP radioligand binding, H1; details: read-out: % inhibition at 10 µM
Chain of H1 histaminergic receptor (P35367 whole entry): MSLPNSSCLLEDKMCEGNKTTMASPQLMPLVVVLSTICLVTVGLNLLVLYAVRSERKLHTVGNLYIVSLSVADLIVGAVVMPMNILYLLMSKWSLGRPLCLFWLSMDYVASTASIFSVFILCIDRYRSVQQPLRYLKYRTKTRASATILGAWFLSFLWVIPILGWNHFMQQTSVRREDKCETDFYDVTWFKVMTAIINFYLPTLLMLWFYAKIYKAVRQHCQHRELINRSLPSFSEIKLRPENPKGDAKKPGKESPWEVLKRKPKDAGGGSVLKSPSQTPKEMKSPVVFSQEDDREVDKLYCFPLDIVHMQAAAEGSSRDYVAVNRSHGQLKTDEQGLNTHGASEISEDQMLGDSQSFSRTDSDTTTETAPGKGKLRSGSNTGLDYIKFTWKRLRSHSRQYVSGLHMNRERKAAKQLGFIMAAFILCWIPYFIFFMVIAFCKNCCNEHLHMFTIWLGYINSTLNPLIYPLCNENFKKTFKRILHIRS

[13] = target: D5 dopaminergic receptor (Homo sapiens, UniProt P21918); experiment: PDSP radioligand binding, D5; details: read-out: % inhibition at 10 µM
Chain of D5 dopaminergic receptor (P21918 whole entry): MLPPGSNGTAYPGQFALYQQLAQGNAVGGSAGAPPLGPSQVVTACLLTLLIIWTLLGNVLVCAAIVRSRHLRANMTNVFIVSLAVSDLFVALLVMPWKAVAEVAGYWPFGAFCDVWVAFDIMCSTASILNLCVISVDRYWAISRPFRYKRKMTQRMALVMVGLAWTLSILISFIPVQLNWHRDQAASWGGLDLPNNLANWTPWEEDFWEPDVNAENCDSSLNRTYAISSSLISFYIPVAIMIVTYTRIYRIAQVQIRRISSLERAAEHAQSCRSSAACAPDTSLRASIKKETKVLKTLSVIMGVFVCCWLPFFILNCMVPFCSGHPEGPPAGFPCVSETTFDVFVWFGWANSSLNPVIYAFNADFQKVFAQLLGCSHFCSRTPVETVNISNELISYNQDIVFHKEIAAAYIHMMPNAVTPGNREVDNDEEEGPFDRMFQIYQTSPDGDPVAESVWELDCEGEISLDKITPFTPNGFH

[14] = target: 5HT1E serotonergic receptor (Homo sapiens, UniProt P28566); experiment: PDSP radioligand binding, 5HT1E; details: read-out: % inhibition at 10 µM
Chain of 5HT1E serotonergic receptor (P28566 whole entry): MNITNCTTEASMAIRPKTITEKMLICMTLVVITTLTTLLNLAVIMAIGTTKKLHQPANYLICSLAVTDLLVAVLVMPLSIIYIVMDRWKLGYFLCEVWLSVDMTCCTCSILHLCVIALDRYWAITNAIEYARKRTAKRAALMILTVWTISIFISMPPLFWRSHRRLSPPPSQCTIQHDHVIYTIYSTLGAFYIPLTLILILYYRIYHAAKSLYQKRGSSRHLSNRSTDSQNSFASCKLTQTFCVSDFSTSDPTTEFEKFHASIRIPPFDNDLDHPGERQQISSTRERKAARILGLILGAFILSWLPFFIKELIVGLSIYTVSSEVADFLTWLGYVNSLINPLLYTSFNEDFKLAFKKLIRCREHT

SMILES	inhibition at 10 µM ([1]; single concentration 10 µM)	inhibition at 10 µM ([2]; single concentration 10 µM)	inhibition at 10 µM [3]	inhibition at 10 µM ([4]; single concentration 10 µM)	inhibition at 10 µM ([5]; single concentration 10 µM)	inhibition at 10 µM ([6]; single concentration 10 µM)	inhibition at 10 µM ([7]; single concentration 10 µM)	inhibition at 10 µM ([8]; single concentration 10 µM)	inhibition at 10 µM ([9]; single concentration 10 µM)	inhibition at 10 µM ([10]; single concentration 10 µM)	inhibition at 10 µM ([11]; single concentration 10 µM)	inhibition at 10 µM ([12]; single concentration 10 µM)	inhibition at 10 µM ([13]; single concentration 10 µM)	inhibition at 10 µM ([14]; single concentration 10 µM)	Ki [1]	inhibition at 10 µM ([3]; single concentration 10 µM)	Ki [5]	Ki [2]	other results
O[C@@H]1[C@H](O)[C@@H]2C[C@@H]2[C@H]1n1cnc2c(NC(C3CC3)C3CC3)nc(Cl)nc21 [Compound 10]	0%	0%	0%	0%	17%	0%	0%	0%	4%	0%	1%	0%	0%	3%					
O[C@@H]1[C@H](O)[C@@H]2C[C@@H]2[C@H]1n1cnc2c(NCc3cccc(Cl)c3)ncnc21 [Compound 7]	51%	4%		35 ± 2%	26%	0%	1%	11%	28%	2%	15%	64%	7%	0%	5360 ± 1250 nM	7%			Ki [4]: 3920 nM
Fc1ccc(C#Cc2nc(NCc3cccc(Cl)c3)c3nc[nH]c3n2)cc1F [Compound 8]	83%	5%		0%	34%	0%	15%	10%	11%	32%	0%	1%	9%	0%	1020 ± 690 nM	9%	2190 ± 270 nM		
CNC(=O)[C@@]12C[C@@H]1[C@@H](n1cnc3c(NCc4cccc(Cl)c4)nc(Cl)nc31)[C@H](O)[C@@H]2O [Compound 4]	11%	0%		40 ± 7%	26%	6%	1%	1%	29%	23%	3%	6%	4%	0%		34%			Ki [4]: 7730 nM
CNC(=O)[C@@]12C[C@@H]1[C@@H](n1cnc3c(NCc4cccc(Cl)c4)nc(C#Cc4ccc(F)cc4)nc31)[C@H](O)[C@@H]2O [Compound 2]	48%	67%		6%	6%	0%	7%	6%	5%	0%	7%	0%	19%	0%	3640 ± 1370 nM	19%		1560 ± 560 nM	
Clc1cccc(CNc2nc(Cl)nc3[nH]cnc23)c1 [Compound 9]	87%	0%	0%	12%	58%	0%	0%	0%	12%	6%	26%	4%	0%	0%	310 nM and 314 nM		3000 ± 510 nM		
O[C@@H]1[C@H](O)[C@@H]2C[C@@H]2[C@H]1n1cnc2c(NCc3cccc(Cl)c3)nc(C#Cc3ccc(F)c(F)c3)nc21 [Compound 6]	11%	27%		0%	14%	0%	0%	0%	9%	13%	13%	3%	3%	0%	5400 ± 1220 nM	6%		2460 ± 130 nM	
CNC(=O)[C@@]12C[C@@H]1[C@@H](n1cnc3c(NCc4cccc(Cl)c4)nc(C#Cc4ccc(F)c(F)c4)nc31)[C@H](O)[C@@H]2O [Compound 1]															2040 ± 950 nM	5%	4770 ± 1430 nM	1450 ± 510 nM	inhibition at 10 µM [1]: 63%; inhibition at 10 µM [2]: 74%; inhibition at 10 µM [4]: 5%; inhibition at 10 µM [5]: 19%; inhibition at 10 µM [6]: 0%; inhibition at 10 µM [7]: 11%; inhibition at 10 µM [8]: 2%; Ki [9]: 7620 nM; inhibition at 10 µM [9]: 26%; inhibition at 10 µM [10]: 0%; inhibition at 10 µM [11]: 10%; inhibition at 10 µM [12]: 0%; inhibition at 10 µM [13]: 13%; inhibition at 10 µM [14]: 12%
CNC(=O)[C@@]12C[C@@H]1[C@@H](n1cnc3c(NC)nc(C#Cc4ccc(F)c(F)c4)nc31)[C@H](O)[C@@H]2O [Compound 5]	13%	22%	11%	0%	0%	4%	5%	5%	10%	15%	0%	0%	6%	9%				2320 ± 390 nM	
